Measured values published in patent US20250326769A1, “HETEROAROMATIC MACROCYCLIC ETHER CHEMOTHERAPEUTIC AGENTS” (Nuvalent, Inc., priority 2022, published 2025).

Assays:
[1] = molecular target: Ba/F3 EML4-ALK v1 I1171N/D1203N (Homo sapiens (Human), UniProt Q9HC35+Q9UM73, D1203N/I1171N); test: Ba/F3 cell proliferation assay, EML4-ALK v1 I1171N/D1203N; assay type: cell-based; settings: for IC50: Ba/F3 stable cells, 72 hours, CellTiter-Glo; for ETV6-TRKB / EML4-ALK v1 I1171N/D1203N / Selectivity for Ba/F3 EML4-ALK v1 I1171N-D1203N IC50 over Ba/F3 ETV6-TRKB IC50: TRKB selectivity, ratio of Ba/F3 IC50 values; for Selectivity for Ba/F3 EML4-ALK v1 I1171N-D1203N IC50 over Ba/F3 ETV6-TRKB IC50: Table 6 bins
Sequence of Ba/F3 EML4-ALK v1 I1171N/D1203N (Q9UM73 other isoform, or with tags, fused parts or gaps I1171N/D1203N): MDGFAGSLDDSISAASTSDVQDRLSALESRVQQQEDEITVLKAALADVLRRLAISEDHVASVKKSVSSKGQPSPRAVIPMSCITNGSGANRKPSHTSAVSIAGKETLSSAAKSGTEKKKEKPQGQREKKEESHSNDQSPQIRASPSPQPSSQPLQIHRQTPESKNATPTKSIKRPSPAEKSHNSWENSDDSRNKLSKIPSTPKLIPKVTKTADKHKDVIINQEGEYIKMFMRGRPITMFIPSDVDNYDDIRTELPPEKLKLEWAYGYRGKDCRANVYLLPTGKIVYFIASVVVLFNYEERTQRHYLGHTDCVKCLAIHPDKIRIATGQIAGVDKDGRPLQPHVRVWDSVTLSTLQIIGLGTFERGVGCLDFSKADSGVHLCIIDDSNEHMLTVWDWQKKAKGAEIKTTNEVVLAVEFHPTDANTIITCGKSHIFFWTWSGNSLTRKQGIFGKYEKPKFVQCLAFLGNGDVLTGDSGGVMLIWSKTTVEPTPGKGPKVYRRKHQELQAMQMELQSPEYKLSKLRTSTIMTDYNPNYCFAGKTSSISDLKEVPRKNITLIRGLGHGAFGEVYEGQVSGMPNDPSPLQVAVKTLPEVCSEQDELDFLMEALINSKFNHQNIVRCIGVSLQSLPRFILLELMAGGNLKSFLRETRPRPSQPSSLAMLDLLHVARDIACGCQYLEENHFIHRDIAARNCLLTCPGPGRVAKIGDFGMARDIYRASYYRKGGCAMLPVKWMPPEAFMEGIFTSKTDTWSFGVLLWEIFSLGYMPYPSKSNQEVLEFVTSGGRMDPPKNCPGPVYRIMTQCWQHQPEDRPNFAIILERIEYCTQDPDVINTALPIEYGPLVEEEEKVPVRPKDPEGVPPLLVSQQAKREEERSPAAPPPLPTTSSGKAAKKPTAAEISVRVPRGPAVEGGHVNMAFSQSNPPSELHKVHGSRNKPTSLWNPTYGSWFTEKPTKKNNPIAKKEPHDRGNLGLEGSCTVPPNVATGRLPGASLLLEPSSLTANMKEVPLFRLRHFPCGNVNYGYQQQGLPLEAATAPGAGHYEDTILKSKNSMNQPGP
Excerpt: (§1) Genes encoding EML4-ALK v1 (variant 1), EML4-ALK v1 G1202R, EML4-ALK v1 I1171IN, EML4-ALK v1 D1203N, EML4-ALK v1 I1171N/D1203N, and ETV6-TRKB were synthesized at GeneRay, cloned into the retroviral construct pMSCV-puro (Biovector), and packaged into retroviral particles. The virus was used to infect Ba/F3 cells (RIKEN) at multiplicity of infection=1 for 1 day. Infected cells were rescued in media (RPMI-1640 with 10% fetal bovine serum and 1% streptomycin and penicillin) supplemented with mouse IL-3 (10 ng/mL) for 2 days, and stable cell lines were selected by IL-3 withdrawal and puromycin (0.8 μg/mL) for 7 days. Monoclones were selected by single-cell dilution in IL-3-free medium containing puromycin (0.8 μg/mL). Transformation of desired genes was confirmed by Sanger sequencing and western blot using the following antibodies: ALK (CST #3633) and pan-TRK (Abcam #76291).
(§2) Stable cells were plated in a 384-well plate. Test compounds were then added in a 3-fold dilution series and incubated for 72 hours. CellTiter-Glo reagent (Promega) was added. Luminescence was measured on a plate reader. Half-maximal inhibitory concentration (ICso) was calculated from percent inhibition and inhibitor concentration using four-parameter logistic regression. Compound potency can be interpreted by binning IC50 values: bin A for high potency, 0.1 nM IC50<50 nM; bin B for medium potency, 50 nM<IC50<500 nM; and bin C for low potency, IC50>500 nM. […] Exemplary data is given in Table 4 (nd is not determined).
(§3) Ba/F3 proliferation is driven by the transduced oncogenes in the same way that cancer cell proliferation in humans is driven by the expression of equivalent oncogenes.
TRKB selectivity was calculated by dividing a compound's TRKB potency by its primary target potency (e.g., ETV6-TRKB IC50/EML4-ALK v1 IC50). Compound selectivity can be interpreted by binning ratio values: bin A for very high selectivity, ratio≥30-fold; bin B for high selectivity, ratio≥10-fold but<30; bin C for moderate selectivity, ratio≥1 but<10; and bin D for low selectivity, ratio<1. […] (nd=not determined).
Additional exemplified compounds were also tested against ALK-INDN and TRKB. The TRKB selectivity was calculated by dividing a compound's TRKB potency by its primary target potency (e.g., ETV6-TRKB IC50/EMIL4-ALK I1171N-D1203N v1 IC50). Compound selectivity can be interpreted by binning ratio values: bin AA for the selectivity with the ratio≥30-fold; bin BB for the selectivity with the ratio≥10-fold but<30; bin CC for the selectivity with the ratio≥5 but<10; bin DD for the selectivity with the ratio≥1 but<5; and bin EE for the selectivity with the ratio<1.

Ba/F3 ETV6-TRKB = Ba/F3 ETV6-TRKB (Homo sapiens, UniProt Q16620); test: Ba/F3 cell proliferation assay, ETV6-TRKB; assay type: cell-based; settings: Ba/F3 stable cells, 72 hours, CellTiter-Glo; read-out: ETV6-TRKB IC50
Sequence of Ba/F3 ETV6-TRKB (Q16620 32-822 limits assumed, change not shown): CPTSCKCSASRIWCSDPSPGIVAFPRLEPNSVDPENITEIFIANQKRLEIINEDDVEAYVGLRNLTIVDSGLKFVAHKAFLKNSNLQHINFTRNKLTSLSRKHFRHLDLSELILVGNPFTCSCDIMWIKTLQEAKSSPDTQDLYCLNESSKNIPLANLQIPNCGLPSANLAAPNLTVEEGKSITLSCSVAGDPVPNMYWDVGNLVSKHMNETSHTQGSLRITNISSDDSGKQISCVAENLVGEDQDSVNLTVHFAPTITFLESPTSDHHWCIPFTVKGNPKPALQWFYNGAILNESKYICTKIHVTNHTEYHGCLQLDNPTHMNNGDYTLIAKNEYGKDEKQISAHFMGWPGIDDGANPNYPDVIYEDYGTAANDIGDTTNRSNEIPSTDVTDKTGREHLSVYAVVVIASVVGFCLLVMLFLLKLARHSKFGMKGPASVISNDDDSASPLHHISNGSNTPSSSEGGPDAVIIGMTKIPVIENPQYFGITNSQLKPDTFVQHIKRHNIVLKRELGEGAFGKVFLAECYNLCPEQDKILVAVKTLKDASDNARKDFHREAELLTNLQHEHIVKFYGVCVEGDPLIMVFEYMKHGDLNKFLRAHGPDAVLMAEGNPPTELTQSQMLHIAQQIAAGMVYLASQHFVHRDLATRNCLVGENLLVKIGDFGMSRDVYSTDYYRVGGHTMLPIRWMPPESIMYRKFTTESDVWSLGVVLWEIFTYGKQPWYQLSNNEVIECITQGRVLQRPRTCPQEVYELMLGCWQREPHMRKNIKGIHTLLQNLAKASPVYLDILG
Excerpt: as §1, §2, §3

Compound	IC50 [1] [nM]	ETV6-TRKB / EML4-ALK v1 I1171N/D1203N [1]	Selectivity for Ba/F3 EML4-ALK v1 I1171N-D1203N IC50 over Ba/F3 ETV6-TRKB IC50 [1]	IC50 (Ba/F3 ETV6-TRKB) [nM]
C[C@H]1Oc2cc(cnc2N)-c2c(C#N)nn(C)c2C(=O)c2cccnc2-c2c(F)cc(F)cc21 [Example 22, (R)-23-amino-15,17-difluoro-5-methyl-20-methyl-7-oxo-21-oxa-4,5,12,24-tetraazapentacyclo[20.3.1.0^2,^6.0^8,^13.0^14,^19]hexacosa-1(25),2(6),3,8,10,12,14,16,18,22(26),23-undecaene-3-carbonitrile]	0.1 to 50	A (bin A for very high selectivity, ratio≥30-fold)	AA (bin AA for the selectivity with the ratio≥30-fold)	> 500
C[C@H]1Oc2cc(cnc2N)-c2c(nn(C)c2C#N)Cc2cccnc2-c2c(F)cc(F)cc21 [Example E1, reference compound]	–	–	BB (bin BB for the selectivity with the ratio≥10-fold but<30)	–
C[C@H]1Oc2cc(cnc2N)-c2c(C#N)nn(C)c2Cc2cccnc2-c2ccc(F)cc21 [Example E8, reference compound]	–	–	DD (bin DD for the selectivity with the ratio≥1 but<5)	–
C[C@H]1Oc2cc(cnc2N)-c2c(nn(C)c2C#N)Oc2cccnc2-c2ccc(F)cc21 [Example 59, (R)-23-amino-17-fluoro-4-methyl-20-methyl-7,21-dioxa-4,5,12,24-tetraazapentacyclo[20.3.1.0^2,^6.0^8,^13.0^14,^19]hexacosa-1(25),2,5,8(13),9,11,14,16,18,22(26),23-undecaene-3-carbonitrile]	0.1 to 50	B (bin B for high selectivity, ratio≥10-fold but<30)	–	50 to 500
Cc1cc2n(n1)-c1ccc(F)cc1[C@@H](C)Oc1cc(cnc1N)-c1c(c(C(=O)N(C)C)nn1C1CCC1)C2 [Example 67, N,N-dimethyl-(R)-22-amino-3-cyclobutyl-16-fluoro-10,19-dimethyl-20-oxa-3,4,11,12,23-pentaazapentacyclo[19.3.1.0^2,^6.0^8,^12.0^13,^18]pentacosa-1(24),2(6),4,8,10,13,15,17,21(25),22-decaene-5-carboxamide]	0.1 to 50	–	–	50 to 500
C[C@H]1Oc2cc(cnc2N)-c2c(nn(C)c2C#N)Cc2cn(C)nc2-c2c(F)cc(F)cc21 [Example E13, reference compound]	–	–	BB (bin BB for the selectivity with the ratio≥10-fold but<30)	–
CCn1ncc2c1-c1cnc(N)c(c1)O[C@H](C)c1cc(F)ccc1-c1nn(C)cc1C2 [Example E4, reference compound]	–	–	EE (bin EE for the selectivity with the ratio<1)	–
C[C@H]1Oc2cc(cnc2N)-c2c(nn(C)c2C#N)Cc2cccnc2-c2ccc(F)cc21 [Example E7, reference compound]	–	–	CC (bin CC for the selectivity with the ratio≥5 but<10)	–
Cc1cc2n(n1)-c1c(F)cc(F)cc1[C@@H](C)Oc1cc(cnc1N)-c1c(C#N)nn(C)c1C2=O [Example 69, (R)-22-amino-14,16-difluoro-5-methyl-10,19-dimethyl-7-oxo-20-oxa-4,5,11,12,23-pentaazapentacyclo[19.3.1.0^2,^6.0^8,^12.0^13,^18]pentacosa-1(24),2(6),3,8,10,13,15, 17,21(25),22-decaene-3-carbonitrile]	0.1 to 50	B (bin B for high selectivity, ratio≥10-fold but<30)	–	50 to 500
Cc1nc2c(s1)C(=O)c1c(c(C#N)nn1C)-c1cnc(N)c(c1)O[C@H](C)c1cc(F)ccc1-2 [Example 74, (R)-22-amino-16-fluoro-5-methyl-10,19-dimethyl-7-oxo-20-oxa-9-thia-4,5,11,23-tetraazapentacyclo[19.3.1.0^2,^6.0^8,^12.0^13,^18]pentacosa-1(24),2(6),3,8(12),10,13,15,17,21(25),22-decaene-3-carbonitrile]	50 to 500	C (bin C for moderate selectivity, ratio≥1 but<10)	CC (bin CC for the selectivity with the ratio≥5 but<10)	> 500
C[C@H]1Oc2nc(cnc2N)-c2c(nn(C)c2C#N)C(=O)c2cccnc2-c2ccc(F)cc21 [Example 75, (R)-23-amino-17-fluoro-4-methyl-20-methyl-7-oxo-21-oxa-4,5,12,24,26-pentaazapentacyclo[20.3.1.0^2,^6.0^8,^13.0^14,^19]hexacosa-1(25),2,5,8(13),9,11,14,16,18,22(26),23-undecaene-3-carbonitrile]	0.1 to 50	A (bin A for very high selectivity, ratio≥30-fold)	–	0.1 to 50
CCc1nn(C(=O)N(C)C)c2c1-c1cnc(N)c(c1)O[C@H](C)c1cc(F)ccc1-c1ncccc1C2 [Example 24, (R)-5-(N,N-dimethylcarbamoyl)-3-ethyl-17-fluoro-20-methyl-21-oxa-4,5,12,24-tetraazapentacyclo[20.3.1.0^2,^6.0^8,^13.0^14,^19]hexacosa-1(25),2(6),3,8(13),9,11,14,16,18,22(26),23-undecaen-23-ylamine]	0.1 to 50	C (bin C for moderate selectivity, ratio≥1 but<10)	–	0.1 to 50
CC1Oc2cc(cnc2N)-c2c(c(C#N)nn2CC2CC2)Cc2cn(C)nc2-c2c(F)cc(F)cc21 (stereo not shown) [Example 70, 22-amino-3-(cyclopropylmethyl)-14,16-difluoro-10,19-dimethyl-20-oxa-3,4,10,11,23-pentaazapentacyclo[19.3.1.0^2,^6.0^8,^12.0^13,^18]pentacosa-1(24),2(6),4,8,11,13,15,17,21(25),22-decaene-5-carbonitrile]	> 500	C (bin C for moderate selectivity, ratio≥1 but<10)	–	> 500
CCn1ncc2c1-c1cnc(N)c(c1)O[C@H](C)c1cc(F)ccc1-c1ncccc1C2 [Example E10, reference compound]	–	–	EE (bin EE for the selectivity with the ratio<1)	–
CC(C)n1nc2c(c1C#N)-c1cnc(N)c(c1)O[C@H](C)c1cc(F)ccc1-c1ncccc1C2 [Example E5, reference compound]	–	–	CC (bin CC for the selectivity with the ratio≥5 but<10)	–
Cc1nc2c(s1)Cc1c(c(C#N)nn1C)-c1cnc(N)c(c1)O[C@H](C)c1cc(F)ccc1-2 [Example E6, reference compound]	–	–	EE (bin EE for the selectivity with the ratio<1)	–
C[C@H]1Oc2cc(cnc2N)-c2c(cnn2CC2CC2)Cc2cccnc2-c2ccc(F)cc21 [Example E11, reference compound]	–	–	DD (bin DD for the selectivity with the ratio≥1 but<5)	–
Cc1cc2n(n1)-c1ccc(F)cc1[C@@H](C)Oc1cc(cnc1N)-c1c(C#N)nn(C)c1C2 [Example E3, reference compound]	–	–	EE (bin EE for the selectivity with the ratio<1)	–
CCn1nc2c(c1C#N)-c1cnc(N)c(c1)O[C@H](C)c1cc(F)ccc1-c1ncccc1C2 [Example E12, reference compound]	–	–	CC (bin CC for the selectivity with the ratio≥5 but<10)	–
C[C@H]1Oc2cc(cnc2N)-c2c(C#N)nn(C)c2Cc2cccnc2-c2c(F)cc(F)cc21 [Example E2, reference compound]	–	–	DD (bin DD for the selectivity with the ratio≥1 but<5)	–
